Counter-ions that a name gives are not always drawn. Like-named read-outs stand apart in the source and are kept apart here.
Target: T1, 5-HT3 receptor (Rattus norvegicus, UniProt P35563)
T1 construct: Wistar strain male rats of 9 week age were anesthesized; from tissue; host or cells: whole anesthetized Wistar rat in vivo (endogenous receptor; cardiac vagal afferents by own knowledge)
T1 sequence (P35563 24-483): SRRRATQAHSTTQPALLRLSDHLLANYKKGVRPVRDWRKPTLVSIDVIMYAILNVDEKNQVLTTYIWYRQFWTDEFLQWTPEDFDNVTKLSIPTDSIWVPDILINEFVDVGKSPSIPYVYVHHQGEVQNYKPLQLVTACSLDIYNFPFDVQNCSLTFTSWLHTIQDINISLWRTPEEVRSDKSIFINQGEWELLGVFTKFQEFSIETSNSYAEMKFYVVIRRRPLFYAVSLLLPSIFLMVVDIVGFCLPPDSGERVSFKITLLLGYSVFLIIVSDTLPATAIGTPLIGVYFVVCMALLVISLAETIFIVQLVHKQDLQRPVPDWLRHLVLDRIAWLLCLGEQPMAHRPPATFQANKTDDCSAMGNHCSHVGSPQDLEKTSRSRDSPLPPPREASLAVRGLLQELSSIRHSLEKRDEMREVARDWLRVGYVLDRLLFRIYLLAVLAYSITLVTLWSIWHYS
Experiment: Inhibition of serotonin- or 2-methylserotonin-induced Bezold-Jarisch (BJ) reflex in anesthetized rats (5-HT3-antagonizing activity)
Type: in vivo, Wistar strain male rats
Details: serotonin-induced BJ reflex in rats, read-out: BJ Reflex Inhibitory Activity (ED50)
Method: Wistar strain male rats of 9 week age were anesthesized with intraperitoneally administering 1 g/kg of urethane. Under artificial respiration, blood pressure and heart rate were measured. Transient reduction in heart rate and in blood pressure induced by intravenous administration of serotonin or 2-methylserotonin which is a selective agonist of 5-HT3 was used as an index for the reaction via 5-HT3 receptor (Bezold-Jarisch reflex : Paintal, A.S., Physiol. Rev., 53, 159, 1973).
Inhibitory activity of the compounds of the present invention on serotonin-induced Bezold-Jarisch (BJ) reflex in rats is shown in the table below.

Row | SMILES | ED50 (iv) [µg/kg] | ED50 (po) [µg/kg]
1 | COc1ccccc1NC(=O)C1CCc2[nH]cnc2C1 (racemic) [Example 1, N-(2-methyloxyphenyl) -4,5,6,7-tetrahydrobenzimidazole-5carboxamide fumarate 0.8hydrate] | 0.32 | 5.9
2 | CCOc1ccccc1NC(=O)C1CCc2nc[nH]c2C1.O=C(O)/C=C/C(=O)O (stereo not shown) [Example 13, N-(2-Ethoxyphenyl)-4,5,6,7-tetrahydrobenzimidazole-5-carboxamide fumarate] | 1.2 | 6.6
